In data set [1] the test system is E. coli K88. Briefly: MIC variability (cross-resistance) after 5 days at sub-MIC. It is filed as cell-based. Particulars: after culture under ampicillin (0.25 × MIC) for 5 days. The procedure: A 1:100 dilution of the bacteria was performed daily in the above MHB. Aliquots of the culture medium were used daily for 5 days thereafter to determine the MICs of ampicillin, tetracycline, aureomycin, and kanamycin. This study was performed based on our previous study ([29]).

Data set [2] deals with E. coli K88. It counts as cell-based. Particulars: sublethal levels, daily sequential passages. As for the experimental part: To quantify the production status of the bacteria, the bacterial density was measured after incubating for 24 h. Cultures with the second highest concentration allowed to grow (OD600 ≥ 2) were diluted 1:100 with MccJ25 MHB at different concentrations than those described above. Cultures that grew above the indicated MIC levels were plated on LB agar plates, and their MIC levels were determined by the broth macrodilution method.

The conditions of data set [3]: remaining peptide by RP-HPLC, n = 6. The procedure: (§1) Figure 3 Stability and activity of MccJ25 in different conditions and biological fluids. Various concentration of MccJ25 was incubated with different temperatures (A), pH values (B), (C) SIF, SGF, and serum. Proteases (D-F) for different indicated times. Afterwards, the amount of the remaining MccJ25 was determined by RP-HPLC. […] NE: negative control; Chy: chymotrypsin. […] Effects of temperature (G), RT: room temperature, pH values (H), proteases (I), SGF (J), SIF (K), and serum (L) on the inhibition of E coli K88 by MccJ25. The zone of inhibition is often used to clarify the antimicrobial activity of MccJ25. […] Chy refers to chymotrypsin. Data are presented as the mean of 6 biological replicates ± standard error of mean form.

Data set [4] relates to Caco-2 cells. Briefly: MTT cytotoxicity assay. It counts as cell-based, human. Conditions: different concentrations of MccJ25 up to 512 μg/mL, 24 h, 37°C; vs control; n = 6. As for the experimental part:
(§2) To test whether MccJ25 could have an effect on the metabolic activity of the cells, the necessary MTT assay was performed (Roche Molecular Biochemistry, Mannheim, Germany) as previously described ([28], [29]). The whole operation process can be briefly summarized as follows: first, various concentration gradients of MccJ25 solution were added, the ambient temperature of the cell secondary incubation was maintained at 37°C, the CO2 concentration was maintained at 5%, and the incubation time needed to reach 24 h. The control group was the cells without any treatment. Afterwards, 20 μL of MTT solution (concentration 5 mg/mL, medium DPBS) was added to all wells and incubated for 3.5 h at a temperature of 37°C and a CO2 concentration of 5%. Components of the medium were removed by centrifugation, and the MTT metabolites were resuspended in 200 μL of dimethyl sulfoxide. The absorbance value at 560 nm was measured, and the background value was the absorbance at 670 nm, which needed to be subtracted from the background value to obtain the absorbance value.
Background: Tetrazolium dyes change colour on reduction, which living cells bring about.

Data set [5] is described as follows: in vitro. The procedure: (§3) The simulated gastric fluid (SGF) and simulated intestinal fluid (SIF) were mainly based on the relevant contents of the Chinese Pharmacopoeia as described previously ([26]). SGF was configurated with 10 mg/mL pepsin, 0.03 M NaCl was used to blend the pH to 1.5, while SIF was configured with 10 mg/mL trypsin, 0.05 M KH2PO4 was used to blended pH as 7. SGF and SIF were then measured separately, and the antimicrobial activity of MccJ25 in serum was determined. E. coli K88 cells were grown in MHB (Difco Laboratories, Detroit, MI, USA). In short, 1 mL of the bacterial suspension and MccJ25 were transferred into 9 mL of medium. The control group was as follows: no MccJ25 was added to it. E. coli K88 cells with a live cell count maintained at approximately 10^5 cells per milliliter were inoculated on LB agar, which was then poured into plates equipped with Oxford cups, thus forming wells. Then, MccJ25 (1 × MIC) previously treated with SGF, SIF and serum for 2, 4, and 6 h was added to these wells. One of the agar substances covering the wells needs to be incubated overnight at 37°C, and finally, the size of its growth inhibition area, i.e., the diameter, needs to be determined.
as §1

The subject of data set [6] is RAW264.7 cells. The data set is described as follows: MTT cytotoxicity assay. It is filed as cell-based, murine. Particulars: different concentrations of MccJ25 up to 512 μg/mL, 24 h, 37°C; vs control; n = 6. As for the experimental part: as §2
The test system of data set [7] is RAW264.7 cells. Particulars: 2 to 512 μg/mL MccJ25, 24 h, 37°C; n = 6. As for the experimental part:
(§4) Certain adjustments were made to Dulbecco’s modified Eagle’s medium (DMEM), i.e., 20% fetal bovine serum (FBS) was added, and human colon cancer cell line Caco-2 and murine cell line macrophage RAW264.7 cells were inoculated into the adjusted medium, with the inoculum density maintained at 2 × 10^4 cells/mL, placed in 96-well plates until the overall confluence ratio reached 80% to 90%, respectively.
(§5) The secretion of the cell membrane enzyme lactate dehydrogenase (LDH) was measured on the basis of a colorimetric assay. Caco-2 and RAW264.7 cells (2 × 10^4 cells/well) as controls without or with concentrations of 2 to 512 μg/mL MccJ25 were incubated for 24 h at 37°C in 5% CO2. A simple step was to transfer 100 μL of cell culture medium from each well to a new 96-well plate and measure the activity of LDH based on the LDH cytotoxicity assay kit (Clontech, Mountain View, CA, USA) according to the manufacturer’s instructions. The catalyst and dye solutions were mixed well and added to the wells containing cell culture medium and then incubated for 30 min at room temperature. The absorbance at 490 and 670 nm was measured with a microplate reader (Model SynergyMx, BioTek, Winooski, VT, USA). Absorbance values were corrected by subtracting the […].

Data set [8] relates to Caco-2 cells. Particulars: 2 to 512 μg/mL MccJ25, 24 h, 37°C; n = 6. As for the experimental part: as §4, §5
A further data set relates to IPEC-J2 cells. Conditions: previous study; ref [29]; cited from earlier work. The text has this: Microcins, AMPs, are a large class of antimicrobial agents that can be employed in the treatment of various infectious diseases. […] Cytotoxicity, including the hemolysis of erythrocytes, is one of the main factors limiting the practical application of AMPs. Therefore, it is crucial to have a clear understanding of the c ...

For data set [9] the following is noted: RP-HPLC. The procedure: as §3
Figure 3 Stability and activity of MccJ25 in different conditions and biological fluids. […] Afterwards, the amount of the remaining MccJ25 was determined by RP-HPLC. […]

A further data set concerns chymotrypsin. Briefly: in vitro. Particulars: RP-HPLC. As for the experimental part:
(§6) The resistance of MccJ25 to pepsin, trypsin and chymotrypsin was evaluated based on previous studies ([26]), with minor modifications. E. coli K88 cells were prepared (approximately 1 × 10^7 CFU/mL), and 1 mL of the bacterial suspension and MccJ25 were transferred into 9 mL of medium. For the control, MccJ25 was not added. LB agar inoculated with E. coli K88 cells (~10^5 viable cells/mL) was poured onto a plate containing an Oxford cup to form individual wells. Then, 2 and 4 h MccJ25 (1 × MIC) previously subjected to different treatments were added to the wells. The agar overlay was incubated overnight at 37°C, and the diameter of the growth inhibition zone was measured.
as §1

The nature of data set [10]: in vitro. As for the experimental part: as §6, §1
This is another data set of the same source.

Another data set has as its system pig erythrocytes (pRBCs). Conditions: 512 μg/mL (highest concentration), 8% RBCs in PBS, 37°C, 1 h, A414. As for the experimental part: (§7) Fresh mouse/pig erythrocytes (mRBCs/pRBCs) were collected from well-grown animals, centrifuged at 4,200 rpm and washed well with phosphate-buffered saline (PBS) to ensure that their supernatants were free of impurities and remained clear. The liquid was added to the 96-well plate after 2-fold dilution of MccJ25 prepared with PBS, and the final concentration of RBCs was introduced at 8%. The plate was stirred less vigorously to homogenize the liquid and incubated at 37°C for 1 h. The supernatant was then centrifuged at 4,500 rpm for 10 min, and its absorbance value at 414 nm was measured. Three replicate groups were set up for all the above experiments, and the percentage hemolysis was calculated as follows: percentage hemolysis = [(A414 in peptide solution - A414 in PBS)/(A414 in […] - A414 in PBS)]. ×100, where 100% hemolysis refers to the absorbance of RBCs exposed to 1% Triton X-100 in the environment and 0% hemolysis refers to the absorbance of RBCs exposed to PBS. The positive control used in this experiment was melittin.

Data set [11] relates to mouse erythrocytes (mRBCs). Conditions: 512 μg/mL (highest concentration), 8% RBCs in PBS, 37°C, 1 h, A414. The procedure:
as §7

“Also recorded” adds a separate entry of the source. Where a SMILES comes first, the peptide text is derived from it. Bridges are numbered along the chain shown (N, C = ends).

As for `NC[C@H]1O[C@H](O[C@H]2[C@H](O)[C@@H](O[C@H]3O[C@H](CO)[C@@H](O)[C@H](N)[C@H]3O)[C@H](N)C[C@@H]2N)[C@H](O)[C@@H](O)[C@@H]1O` [kanamycin], the “elevation of the MIC of the antibiotic” value in the data set on E. coli K88 [1] amounted to 2 fold.

`CC1(C)S[C@@H]2[C@H](NC(=O)[C@H](N)c3ccccc3)C(=O)N2[C@H]1C(=O)O` [ampicillin]: the “elevation of the MIC of the antibiotic” value with E. coli K88 [1] was 2 fold. The “time of serial passage until resistance” value with E. coli K88 [2] is recorded as not above 4 days.

Consider `CN(C)[C@@H]1C(O)=C(C(N)=O)C(=O)[C@@]2(O)C(O)=C3C(=O)c4c(O)cccc4[C@@](C)(O)[C@H]3C[C@@H]12` [tetracycline], for which the “elevation of the MIC of the antibiotic” value in the data set with E. coli K88 [1] worked out at 2 fold. The “time of serial passage until resistance” value in the data set with E. coli K88 [2] is recorded as not above 3 days.

In the case of `O=C(O)c1cn(C2CC2)c2cc(N3CCNCC3)c(F)cc2c1=O` [ciprofloxacin], in the data set on E. coli K88 [1], the “elevation of the MIC of the antibiotic” value worked out at 2 fold.

In the case of `CC[C@H](C)[C@H](NC(=O)CNC(=O)[C@@H](NC(=O)[C@H](Cc1ccccc1)NC(=O)[C@H](Cc1ccc(O)cc1)NC(=O)[C@@H]1CCC(=O)NCC(=O)NCC(=O)N[C@@H](C)C(=O)NCC(=O)N[C@@H](Cc2cnc[nH]2)C(=O)N[C@@H](C(C)C)C(=O)N2CCC[C@H]2C(=O)N1)C(C)C)C(=O)NCC(=O)N[C@H](C(=O)N1CCC[C@H]1C(=O)N[C@H](C(=O)N[C@@H](CO)C(=O)N[C@@H](Cc1ccccc1)C(=O)N[C@@H](Cc1ccc(O)cc1)C(=O)NCC(=O)O)[C@@H](C)CC)[C@@H](C)O` [MccJ25, microcin J25] (GGAGHVPEYFVGIGTPISFYG-OH; lactam N-8), in data set [3] (121°C, 20 min), the “stability of intact MccJ25 at high temperature” value is reported as “able to maintain its own steady state”. Also, the “stability of intact MccJ25 at different pH” value in data set [3] (pH 2.0 to 9.0, 2 h) is listed as “able to maintain its own steady state”. The “cell viability (MTT)” value with Caco-2 cells [4] and with RAW264.7 cells [6] was “nontoxic; also recorded: no significant differences in cell survival” throughout. In addition, the “intact MccJ25 after 6 h of incubation in serum” value in “in vitro [5]” (6 h, RP-HPLC) is “still present”. The “intact MccJ25 after 6 h of incubation in SIF” value in the data set “in vitro [5]” (SIF pH 7, 10 mg/mL trypsin, 6 h, RP-HPLC) is given as “still present”. In addition, the half-life was 4 h in the data set “in vitro [5]” (mouse, serum) and 2 h in the data set “in vitro [5]” (simulated intestinal fluid (SIF) with 10 mg/mL trypsin, pH 7). Besides, the “LDH activity (plasma membrane integrity)” value in the data set on RAW264.7 cells [7] and in the data set on Caco-2 cells [8] was “did not stimulate LDH activity” in each case. Also, the cytotoxicity entry in the data set on IPEC-J2 cells is reported as “not cytotoxic”. The “intact MccJ25 after 6 h of incubation in SGF” value in [9] (SGF pH 1.5, 10 mg/mL pepsin, 6 h) is reported as “still present”. Besides, in [9] (SGF: 10 mg/mL pepsin, 0.03 M NaCl, pH 1.5, up to 6 h, n = 6), the “concentration of intact MccJ25 in SGF” value is listed as “decreased slowly”. In addition, the “level of intact MccJ25 exposed to chymotrypsin” value in the data set on chymotrypsin (2 and 4 h) is “below the detection limit”. In addition, the “intact MccJ25 after exposure to chymotrypsin” value in the data set on chymotrypsin (after 6 h) is given as “below the detection limit”. The same compound yielded a metabolised at 1 h in the data set “in vitro [10]” (chymotrypsin (isolated protease)) of 70%. The amount remaining at 6 h in the data set “in vitro [10]” (pepsin (isolated protease)) and in the data set “in vitro [10]” (trypsin (isolated protease)) was more than 70% throughout. In addition, the hemolysis is recorded as 4.07% in the data set on pig erythrocytes (pRBCs) and 4.16% in data set [11].

One may read the half-life as how long it takes for the measured level to halve. For orientation: share remaining means the share of the starting amount still present when the sample was taken. A higher share remaining goes with greater stability.

Values taken from article PMC8894198, “Biosynthetic Microcin J25 Exerts Strong Antibacterial, Anti-Inflammatory Activities, Low Cytotoxicity Without Increasing Drug-Resistance to Bacteria Target” (Frontiers in Immunology, 2022).
